Experimental data published in US4593043A, “Mercapto acyl-carnitines and pharmaceutical compositions containing same” (Sigma-Tau Industrie Farmaceutiche Riunite S.p.A., priority 1981, dated 1986).
Structures can show the parent of a compound that is named as a salt.

Experiments:
[1] = Acute toxicity in the mouse, Weil method; conditions: in vivo, ip
Text: The acute toxicity of the compounds of general formula (I) has been studied in the mouse with the Weil method (Weil C. S., Biometer. J. 8, 249, 1952).
The LD50 values of some compounds illustrated in Table I, indicate that the compounds are remarkably well tolerated. PG,20
general formula (I). Weil's method (N = 5, K = 4) Cl = hydro-

[2] = system: bronchial secretion; test: Expectorant activity (bronchial secretion), method of Perry et al.; format: in vivo, male rabbits; conditions: rabbits; for Percentage variations of bronchial secretion, 1 hour: 1 hour after administration; for Percentage variations of bronchial secretion, 2 hours: 2 hours after administration; for Percentage variations of bronchial secretion, 4 hours: 4 hours after administration
Method: The tests were carried out on male rabbits, weighing 2-3 Kg, anesthetized with ethyl urethane, by following the method disclosed by Perry et al. (J. Pharm. Exp. Ther. 73, 65, 1941).
Each cannula was connected to a feeding device which delivered a steady flow-rate of pre-heated air (36°-38° C.) at constant humidity (80%). At the lower end of each cannula, a graduated cylinder was fitted, wherein the bronchial secretion was collected. All of the animals breathed spontaneously and consequently they self-regulated the air intake suitable for normal respiration. […] Each dose of drug was administered to 5 animals. The control animals (8) were given water only. The amount of secretion was determined after 1, 2 and 4 hours from administration.

[3] = Mucolytic activity in vitro on human sputum (thromboelastograph, method of Morandini et al.); conditions: for Percentage drop ± s.e. of the tracing versus maximum peak (mucolytic activity index), dilution 1/30: 1 ml of a 10% solution at dilution 1/30; for Percentage drop ± s.e. of the tracing versus maximum peak (mucolytic activity index), dilution 1/60: 1 ml of a 10% solution at dilution 1/60
Method: The tests were carried out in vitro by using the method disclosed by Morandini et al. (Lotta contro la tubercolosi 47, n. 4, 1977). A thromboelastograph was used to follow the variations induced by the compounds of general formula (I) and acetylcisteine on the rheological properties of human sputum.

[4] = system: burned cutaneous area of the back; test: Cutaneous regeneration from burns; format: in vivo; conditions: rabbits, oral, 20 mg Kg^-1 once a day for seven days; for Percentage of regenerated tissue, 4th day: 4th day from treatment; for Percentage of regenerated tissue, 8th day: 8th day from treatment
Method: The ability of the compounds of formula (I) to speed up the cutaneous regeneration from burns has been tested in rabbits.
A 4 cm^2 cutaneous area of the average-top zone of the test animal back was burned.
The compounds were orally administered in aqueous solution at the dose of 20 mg Kg^-1 once a day for seven days. The area of cutaneous regeneration, i.e. the area of the newly formed tissue was then measured (Table III).

[5] = system: damage provoked by irradiation in rats; test: Protection against X-ray exposure (survival after irradiation); format: in vivo, Albino Wister rats; conditions: 30-40 mg Kg^-1 1 hour before irradiation and 15 mg Kg^-1 per day in the subsequent 20 days
Method: The effect of the compounds of formula (I) towards the damages provoked by X-ray exposure was studied.
The experiment animals, Albino Wister rats, treated with the compounds under examination (30-40 mg Kg^-1 1 hour before irradiation and 15 mg Kg^-1 per day in the subsequent 20 days) were irradiated and checked over a time period to detect the onset of toxic effects and the time of survival with respect to the control group. […]

[6] = mice, ep, Weil's method (N = 5, K = 4)

CCC(S)C(=O)OC(CC(=O)O)C[N+](C)(C)C (stereo not shown) [2-mercapto butyryl carnitine Cl]
LD50 [1]: 294 mg/kg | Percentage variations of bronchial secretion, 1 hour ([2]; 15 mg oral): +0.5% | Percentage variations of bronchial secretion, 2 hours ([2]; 15 mg oral): +0.9% | Percentage variations of bronchial secretion, 4 hours ([2]; 15 mg oral): +2.3% | Percentage drop ± s.e. of the tracing versus maximum peak (mucolytic activity index), dilution 1/30 [3]: 85.3 ± 4% | Percentage drop ± s.e. of the tracing versus maximum peak (mucolytic activity index), dilution 1/60 [3]: 38.4 ± 5% | Percentage of regenerated tissue, 4th day [4]: 35% | Percentage of regenerated tissue, 8th day [4]: 95% | Percentage of surviving animals [5]: 70% | Percentage of surviving animals, day 10 from irradiation [5]: 100% | Percentage of surviving animals, day 20 from irradiation [5]: 85%

CC(S)C(=O)OC(CC(=O)O)C[N+](C)(C)C (stereo not shown) [2-mercapto propionyl carnitine Cl]
LD50 [1]: 294 mg/kg | Percentage variations of bronchial secretion, 1 hour ([2]; 10 mg oral): +0.1% | Percentage variations of bronchial secretion, 2 hours ([2]; 10 mg oral): +0.2% | Percentage variations of bronchial secretion, 4 hours ([2]; 10 mg oral): +2.0% | Percentage drop ± s.e. of the tracing versus maximum peak (mucolytic activity index), dilution 1/30 [3]: 85.4 ± 6% | Percentage drop ± s.e. of the tracing versus maximum peak (mucolytic activity index), dilution 1/60 [3]: 46.5 ± 6% | Percentage of regenerated tissue, 4th day [4]: 30% | Percentage of regenerated tissue, 8th day [4]: 65% | Percentage of surviving animals [5]: 45% | Percentage of surviving animals, day 10 from irradiation [5]: 80% | Percentage of surviving animals, day 20 from irradiation [5]: 70%

C[N+](C)(C)CC(CC(=O)O)OC(=O)CCS (stereo not shown) [3-mercapto propionyl carnitine Cl, 3-mercapto propionyl carnitine hydrochloride]
LD50 [1, 6]: 312 mg/kg | Percentage variations of bronchial secretion, 1 hour ([2]; 15 mg oral): -0.2% | Percentage variations of bronchial secretion, 2 hours ([2]; 15 mg oral): +0.4% | Percentage variations of bronchial secretion, 4 hours ([2]; 15 mg oral): +1.1% | Percentage of regenerated tissue, 4th day [4]: 40% | Percentage of regenerated tissue, 8th day [4]: 80% | Percentage of surviving animals [5]: 60% | Percentage of surviving animals, day 10 from irradiation [5]: 90% | Percentage of surviving animals, day 20 from irradiation [5]: 80%

C[N+](C)(C)CC(CC(=O)O)OC(=O)CCCS (stereo not shown) [4-mercapto butyryl carnitine Cl, 4-mercapto butyryl carnitine hydrochloride]
LD50 [1, 6]: 303 mg/kg | Percentage variations of bronchial secretion, 1 hour ([2]; 20 mg oral): +0.4% | Percentage variations of bronchial secretion, 2 hours ([2]; 20 mg oral): +0.6% | Percentage variations of bronchial secretion, 4 hours ([2]; 20 mg oral): +1.2% | Percentage of regenerated tissue, 4th day [4]: 25% | Percentage of regenerated tissue, 8th day [4]: 70% | Percentage of surviving animals [5]: 55% | Percentage of surviving animals, day 10 from irradiation [5]: 100% | Percentage of surviving animals, day 20 from irradiation [5]: 80%

C[N+](C)(C)CC(CC(=O)O)OC(=O)CCCCS (stereo not shown) [5-mercapto valeryl carnitine Cl]
LD50 [1]: 281 mg/kg | Percentage variations of bronchial secretion, 1 hour ([2]; 15 mg oral): +0.6% | Percentage variations of bronchial secretion, 2 hours ([2]; 15 mg oral): -0.3% | Percentage variations of bronchial secretion, 4 hours ([2]; 15 mg oral): +1.4% | Percentage drop ± s.e. of the tracing versus maximum peak (mucolytic activity index), dilution 1/30 [3]: 90.3 ± 6% | Percentage drop ± s.e. of the tracing versus maximum peak (mucolytic activity index), dilution 1/60 [3]: 48.3 ± 6% | Percentage of regenerated tissue, 4th day [4]: 20% | Percentage of regenerated tissue, 8th day [4]: 60% | Percentage of surviving animals [5]: 50% | Percentage of surviving animals, day 10 from irradiation [5]: 95% | Percentage of surviving animals, day 20 from irradiation [5]: 70%

CC(=O)N[C@@H](CS)C(=O)O [Acetylcysteine, reference compound]
Percentage drop ± s.e. of the tracing versus maximum peak (mucolytic activity index), dilution 1/30 [3]: 75.7 ± 7% | Percentage drop ± s.e. of the tracing versus maximum peak (mucolytic activity index), dilution 1/60 [3]: 22.3 ± 4%

C[N+](C)(C)CC(CC(=O)O)OC(=O)CS (stereo not shown) [mercapto acetyl carnitine Cl]
LD50 [1]: 308 mg/kg | Percentage variations of bronchial secretion, 1 hour ([2]; 10 mg oral): +0.3% | Percentage variations of bronchial secretion, 2 hours ([2]; 10 mg oral): +0.9% | Percentage variations of bronchial secretion, 4 hours ([2]; 10 mg oral): +2.4% | Percentage drop ± s.e. of the tracing versus maximum peak (mucolytic activity index), dilution 1/30 [3]: 78.3 ± 5% | Percentage drop ± s.e. of the tracing versus maximum peak (mucolytic activity index), dilution 1/60 [3]: 45.2 ± 4% | Percentage of regenerated tissue, 4th day [4]: 35% | Percentage of regenerated tissue, 8th day [4]: 70% | Percentage of surviving animals [5]: 30% | Percentage of surviving animals, day 10 from irradiation [5]: 85% | Percentage of surviving animals, day 20 from irradiation [5]: 45%
